In the NIST ThermoML archive (doi:10.1021/je050402s):

Experiment: xn = mol fraction of the nth substance listed
Conditions: 100.5 kPa, Liquid

CCOC(=O)c1ccccc1O [ethyl 2-hydroxybenzoate] + CCO
Conditions	mass density, 288.15 K [kg/m3]	mass density, 298.15 K [kg/m3]	mass density, 308.15 K [kg/m3]	mass density, 318.15 K [kg/m3]	viscosity, 288.15 K [mPa·s]	viscosity, 298.15 K [mPa·s]	viscosity, 308.15 K [mPa·s]	viscosity, 318.15 K [mPa·s]
x1 = 0.05	835.47	826.63	817.7	808.61	1.398	1.145	0.953	0.802
x1 = 0.1	871.02	862	852.86	843.56	1.467	1.197	0.998	0.836
x1 = 0.15	901.89	892.7	883.41	873.95	1.533	1.258	1.043	0.877
x1 = 0.2	928.98	919.64	910.21	900.63	1.615	1.322	1.094	0.915
x1 = 0.25	952.87	943.42	933.9	924.22	1.708	1.388	1.147	0.957
x1 = 0.3	974.13	964.62	955.01	945.25	1.8	1.455	1.198	0.999
x1 = 0.35	993.22	983.64	973.96	964.15	1.902	1.526	1.254	1.045
x1 = 0.4	1010.45	1000.81	991.08	981.22	2.001	1.598	1.313	1.093
x1 = 0.45	1026.08	1016.38	1006.61	996.72	2.104	1.677	1.373	1.141
x1 = 0.5	1040.36	1030.63	1020.8	1010.88	2.209	1.757	1.435	1.192
x1 = 0.55	1053.4	1043.63	1033.79	1023.85	2.317	1.838	1.498	1.242
x1 = 0.6	1065.37	1055.57	1045.7	1035.76	2.428	1.921	1.561	1.294
x1 = 0.65	1076.35	1066.53	1056.65	1046.7	2.543	2.006	1.627	1.347
x1 = 0.7	1086.51	1076.67	1066.79	1056.85	2.664	2.096	1.695	1.403
x1 = 0.75	1095.97	1086.12	1076.24	1066.31	2.8	2.187	1.766	1.463
x1 = 0.8	1104.72	1094.88	1085.02	1075.11	2.943	2.288	1.846	1.527
x1 = 0.85	1112.93	1103.09	1093.24	1083.37	3.1	2.398	1.932	1.596
x1 = 0.9	1120.61	1110.81	1101	1091.17	3.268	2.522	2.03	1.678
x1 = 0.95	1127.85	1118.07	1108.31	1098.55	3.503	2.706	2.163	1.781
x1 = 1	1134.72	1125	1115.29	1105.6	3.694	2.831	2.253	1.842

CCOC(=O)CC(C)C [ethyl 3-methylbutanoate] + CCO
viscosity [mPa·s], Capillary tube (Ostwald / Ubbelohde) method
Conditions	288.15 K	298.15 K	308.15 K	318.15 K
x1 = 0.05	1.229	1.02	0.852	0.715
x1 = 0.1	1.125	0.945	0.793	0.668
x1 = 0.15	1.057	0.891	0.75	0.638
x1 = 0.2	1.002	0.848	0.718	0.618
x1 = 0.25	0.966	0.815	0.695	0.6
x1 = 0.3	0.935	0.791	0.677	0.587
x1 = 0.35	0.908	0.771	0.663	0.579
x1 = 0.4	0.886	0.754	0.653	0.571
x1 = 0.45	0.867	0.742	0.645	0.565
x1 = 0.5	0.855	0.733	0.638	0.559
x1 = 0.55	0.847	0.724	0.631	0.554
x1 = 0.6	0.84	0.719	0.624	0.55
x1 = 0.65	0.835	0.713	0.62	0.548
x1 = 0.7	0.83	0.713	0.618	0.547
x1 = 0.75	0.827	0.714	0.619	0.546
x1 = 0.8	0.83	0.716	0.621	0.549
x1 = 0.85	0.833	0.722	0.625	0.552
x1 = 0.9	0.839	0.727	0.631	0.556
x1 = 0.95	0.845	0.729	0.634	0.56
x1 = 1	0.853	0.739	0.642	0.566

mass density [kg/m3]
Conditions	288.15 K	298.15 K	308.15 K	318.15 K
x1 = 0.05	802.64	793.85	784.95	775.9
x1 = 0.1	810.36	801.39	792.29	783.04
x1 = 0.15	817.13	807.99	798.73	789.31
x1 = 0.2	823.05	813.77	804.39	794.81
x1 = 0.25	828.3	818.9	809.39	799.73
x1 = 0.3	833.01	823.53	813.92	804.15
x1 = 0.35	837.23	827.65	817.96	808.12
x1 = 0.4	841.07	831.42	821.66	811.75
x1 = 0.45	844.57	834.87	825.05	815.07
x1 = 0.5	847.78	838.02	828.15	818.12
x1 = 0.55	850.72	840.93	831.01	820.95
x1 = 0.6	853.42	843.59	833.64	823.56
x1 = 0.65	855.93	846.06	836.09	826
x1 = 0.7	858.27	848.38	838.38	828.28
x1 = 0.75	860.46	850.55	840.55	830.44
x1 = 0.8	862.52	852.6	842.6	832.48
x1 = 0.85	864.44	854.52	844.51	834.44
x1 = 0.9	866.27	856.34	846.34	836.27
x1 = 0.95	868.03	858.12	848.15	838.1
x1 = 1	869.66	859.78	849.83	839.81
